Experimental data published in paper PMC10681007, “Targeted Degradation of XIAP is Sufficient and Specific to Induce Apoptosis in MYCN-overexpressing High-risk Neuroblastoma” (Cancer Research Communications, 2023).
Starred links: 1 amine or outer side, 2 acyl side, 3 side chain; linkers in the order of their positions; H or OH if unused. Positions of bridges follow the written chain, without caps; N, C: chain ends. Non-standard residues stand in square brackets, D forms with d. Residues, ends and D or L forms follow the SMILES beside them. Chains are numbered I, II in the order given. Hexamethylenediamine = C(CCCN[*:2])CCN[*:1]; Dip = N[C@H](C(=O)O)C(c1ccccc1)c1ccccc1; Chg = N[C@H](C(=O)O)C1CCCCC1; NMeA = CN[C@@H](C)C(=O)O

System: XIAP and c-IAP1
Test: Immunoblot analysis of XIAP and c-IAP1 expression
Type: cell-based, Human
Conditions: 10 µmol/L
From the text: FIGURE 2 Specific loss of XIAP expression, not c-IAP1, is required for mediating apoptosis in high-risk neuroblastoma cells. A, Summary of IAP antagonists’ efficacy in killing neuroblastoma cells. The IAP antagonists were ranked on the basis of the average potency of killing (IC50) and specificity of killing toward only neuroblastoma cells: (i) A4, (ii) B3, (iii) BV6, (iv) LCL161, (v) CUDC-427, (vi) Debio 1143. B, Immunoblot analysis of c-IAP1, XIAP, PARP, and cleaved caspase-3 expression in neuroblastoma cell lines, BE(2)-C and KELLY, and noncancerous normal tissue cell line, HS5, after treatment with 10 µmol/L of either A4, B3, or BV6 at indicated timings (three independent replicates). C, Graphical representation showing the fold change of caspase-3/7 activity relative to vehicle controls after treatment with 10 µmol/L of either A4, B3, or BV6 at indicated timings (data were expressed as mean ± SD of three independent experiments conducted in duplicates; *, P < 0.05). D, Morphology of cells 48 hours posttreatment with 10 µmol/L of either A4, B3, or BV6. […]
Whole cell lysates harvested were lysed in EBC buffer (pH 8.0 of 50 mM Tris, 0.5% NP-40, 120 mM sodium chloride) containing protease inhibitors and protein concentration were quantified using the Bradford assay (Thermo Fisher Scientific). […]

## CN[C@@H](C)C(=O)N[C@H](C(=O)N1CCC[C@H]1C(=O)N[C@H](C(=O)NCCCCCCNC(=O)[C@@H](NC(=O)[C@@H]1CCCN1C(=O)[C@@H](NC(=O)[C@H](C)NC)C1CCCCC1)C(c1ccccc1)c1ccccc1)C(c1ccccc1)c1ccccc1)C1CCCCC1 [BV6] (I: H-[NMeA][Chg]P[Dip] / II: H-[NMeA][Chg]P[Dip]; linker I:C-II:C via Hexamethylenediamine)
BE(2)-C and KELLY cells
  XIAP and c-IAP1 expression (immunoblot): loss of c-IAP1 expression with no change in XIAP expression
HS5 cells
  XIAP and c-IAP1 expression (immunoblot): loss of c-IAP1 expression with no changes in XIAP expression
